Where a name gives a salt, the structure may show the parent alone. Read-outs that look alike come from different tables or passages of the source.
Key:
P. falciparum Dd2-HLH [1] = assay: microbe, parasite or virus in culture; format: cell-based, Plasmodium falciparum; conditions: Plasmodium falciparum, DD2, 72 h, read-out: Blood stage 72h EC50
[2] = Mammalian cell cytotoxicity assay, HEK293T (CellTiter-Glo, 72 h); conditions: human, HEK293T cells
[3] = test system: P. berghei-luciferase sporozoites; assay: microbe, parasite or virus in culture; format: cell-based, Plasmodium berghei; conditions: Plasmodium berghei, HepG2; liver-stage parasites, 48 hours in culture; read-out: Liver stage 48h EC50
[4] = Mammalian cell cytotoxicity assay, HepG2 (CellTiter-Glo, 72 h); conditions: human, HepG2 cells
P. falciparum Dd2-HLH [5] = assay: microbe, parasite or virus in culture; format: cell-based, Plasmodium falciparum; conditions: Plasmodium falciparum
[6] = DD2, 48 h, read-out: Blood stage 48h EC50
[7] = DD2, read-out: EC50 (antiplasmodial, quoted in discussion from Supplementary Table 1)

Structure (SMILES) | EC50 (P. falciparum Dd2-HLH [1]) [nM] | CC50 at 72 h [2] [nM] | EC50 [3] [nM] | CC50 at 72 h [4] [nM] | EC50 (P. falciparum Dd2-HLH [5]; [6]) [nM] | EC50 (P. falciparum Dd2-HLH [5]; [7]) [nM]
c1cc(-c2nc3ccc(-c4ccc5nc(-c6ccncc6)[nH]c5c4)cc3[nH]2)ccn1 [Ridinilazole] | 90 | > 9950 | 215 | 3110 |  | 
C/C(=C\c1csc(C)n1)[C@@H]1C[C@@H]2O[C@]2(C)CCC[C@H](C)[C@H](O)[C@@H](C)C(=O)C(C)(C)[C@@H](O)CC(=O)N1 [Ixabepilone] |  | 15 | 867 | 7 | 42 | 
CN(C)Cc1ccc(S(=O)(=O)n2ccc(/C=C/C(=O)NO)c2)cc1 [resminostat, reference compound] | 697 | 3550 | 7060 | 1200 |  | 431
CCN(CC)CC[n+]1ccc2c(C)c3[nH]c4ccc(O)cc4c3c(C)c2c1 [Datelliptium Chloride] | 193 | 4690 | > 10000 | 505 |  | 
c1ccc(Cn2c(N3CCNCC3)nc3ccccc32)cc1 [Lerisetron] | 267 | > 9950 | 1130 | 236 | 144 | 
COC(=O)[C@]12CCC(C)(C)C[C@H]1[C@H]1C(=O)C=C3[C@@]4(C)C=C(C#N)C(=O)C(C)(C)[C@@H]4CC[C@@]3(C)[C@]1(C)CC2 [Bardoxolone methyl] | 750 | 208 | 155 | 557 | 340 | 
Cc1cc(N)c2cc(NC(=O)Nc3ccc4nc(C)cc(N)c4c3)ccc2n1 [Aminoquinuride] | 449 | > 9950 | 3490 | > 9990 | 79 | 
CCCCCC(=O)O[C@]1(C(C)=O)CC[C@H]2[C@@H]3CCC4=CC(=O)CC[C@]4(C)[C@H]3CC[C@@]21C [Hydroxyprogesterone caproate] | 742 | > 9950 | 1710 | 863 | 550 | 
CC(=O)O[C@@]12CO[C@@H]1C[C@H](O)[C@@]1(C)C(=O)[C@H](O)C3=C(C)[C@@H](OC(=O)[C@H](O)[C@@H](NC(=O)OC(C)(C)C)c4ccccc4)C[C@@](O)([C@@H](OC(=O)c4ccccc4)[C@H]21)C3(C)C [Docetaxel] | 11 | > 9950 | 401 | 24 | 11 | 
CC(=O)Nc1cccc(-n2c(=O)n(C3CC3)c(=O)c3c(Nc4ccc(I)cc4F)n(C)c(=O)c(C)c32)c1 [Trametinib dimethyl sulfoxide] | 300 | > 9950 |  | 119 | 160 | 
CC[C@]1(O)C[C@@H]2CN(CCc3c([nH]c4ccccc34)[C@@](C(=O)OC)(c3cc4c(cc3OC)N(C)[C@H]3[C@@](O)(C(N)=O)[C@H](O)[C@]5(CC)C=CCN6CC[C@]43[C@@H]65)C2)C1 [Vindesine] | 20 | > 9950 | 837 | > 9990 | 14 | 
O=C(NO)c1cnc(N2C[C@@H]3[C@H](C2)[C@H]3NCc2ccc3cc(F)ccc3n2)nc1 [CHR-3996] | 15 | 920 | 151 | 195 | 20 | 
CC(C)C(=O)OCC(=O)[C@@]12O[C@H](C3CCCCC3)O[C@@H]1C[C@H]1[C@@H]3CCC4=CC(=O)C=C[C@]4(C)[C@H]3[C@@H](O)C[C@@]12C [Ciclesonide] | 661 |  | 3330 | > 9950 | 199 | 
CC[C@H](C(=O)N1CCCC[C@H]1C(=O)O[C@H](CCc1ccc(OC)c(OC)c1)c1cccc(OCC(=O)NCCNC(=O)COc2cccc([C@@H](CCc3ccc(OC)c(OC)c3)OC(=O)[C@@H]3CCCCN3C(=O)[C@@H](CC)c3cc(OC)c(OC)c(OC)c3)c2)c1)c1cc(OC)c(OC)c(OC)c1 [Rimiducid] | 411 | > 9950 | > 10000 |  | 59 | 
COc1ccc(C(=O)c2cn(C(C)C)c3ncnc(N)c23)cc1NC(=O)Nc1ccc(Cl)cc1Cl [CE-245677] | 810 | > 9950 | 3330 |  | 619 | 
COc1cc2c(Oc3ccc(NC(=O)C4(C(=O)Nc5ccc(F)cc5)CC4)cc3F)ccnc2cc1OCCCN1CCOCC1 [Foretinib] | 859 | 2370 | 6050 |  | 139 | 
CCc1cc2c(cc1N1CCC(N3CCOCC3)CC1)C(C)(C)c1[nH]c3cc(C#N)ccc3c1C2=O [Alectinib Hydrochloride] | 926 | 797 | 152 |  | 907 | 
CCN(CC)CCN(Cc1ccc(-c2ccc(C(F)(F)F)cc2)cc1)C(=O)Cn1c(SCc2ccc(F)cc2)nc(=O)c2c1CCC2 [Darapladib] | 850 | 1730 | 2880 |  | 515 | 
CC(C)n1nc(-c2ccc3oc(N)nc3c2)c2c(N)ncnc21 [Sapanisertib] | 305 | 102 | 665 |  | 187 | 
CC[C@]1(O)C[C@@H]2CN(CCc3c([nH]c4ccccc34)[C@@](C(=O)OC)(c3cc4c(cc3OC)N(C)[C@H]3[C@@](O)(C(=O)OC)[C@H](OC(C)=O)[C@]5(CC)C=CCN6CC[C@]43[C@@H]65)C2)C1 [Vinblastine sulfate] | 24 | 102 | 1100 |  | 29 | 
FC(F)c1nc2ccccc2n1-c1nc(N2CCOCC2)nc(N2CCOCC2)n1 [ZSTK-474] | 841 | 762 | 973 |  | 238 | 
O=C(CCCCCCNC(=O)c1cnc(N(c2ccccc2)c2ccccc2)nc1)NO [Ricolinostat] | 770 | > 9950 | 4370 |  | 555 | 
CN(C)Cc1c(C(=O)NCCOc2ccc(C(=O)NO)cc2)oc2ccccc12 [Abexinostat] | 91 | 376 | 1190 |  | 51 | 
CCOC(=O)[C@H]1O[C@@H]1C(=O)N[C@@H](CC(C)C)C(=O)NCCC(C)C [aloxistatin, reference compound] | 69 | > 9950 | > 10000 |  |  | 31
CCCCN(CCCC)CCC(O)c1cc2c(Cl)cc(Cl)cc2c2cc(C(F)(F)F)ccc12 (stereo not shown) [Halofantrine HCl] | 1 | > 9950 | 1880 | > 9950 |  | 
CCOc1cc2ncc(C#N)c(Nc3ccc(OCc4cccc(F)c4)c(Cl)c3)c2cc1NC(=O)/C=C/CN(C)C [HKI-357] | 619 | 1720 | 573 |  | 212 | 
CN(NC(=O)CC(=O)NN(C)C(=S)c1ccccc1)C(=S)c1ccccc1 [Elesclomol] | 437 | 169 | > 10000 |  | 196 | 
CN(C)c1ccc(C(=C2C=CC(=[N+](C)C)C=C2)c2ccc(N(C)C)cc2)cc1 [Gentian violet] | 456 | 136 | 214 |  | 104 | 
C=CCn1c(=O)c2cnc(Nc3ccc(N4CCN(C)CC4)cc3)nc2n1-c1cccc(C(C)(C)O)n1 [MK-1775] | 681 | 310 | 6100 |  | 595 | 
